According to US20040062739A1, “Use of carbohydrates to improve skin barrier function” (SOCIETE L'OREAL S.A., priority 2000, published 2004):

Key:
[1] = system: β-D-glucosidase in the stratum corneum; test: enzymatic test of stratum corneum glycosidases with PNP chromogenic substrate: β-glucosidase; type: biochemical; settings: for stimulation of β-D-glucosidase activity: different concentrations, FIG. 2
Experimental: (§1) In order to determine the nature and importance of the barrier effect of a carbohydrate derivative in accordance with the invention, the influence of O-octanoyl-6′-maltose on glycosidase activity was studied using the following enzymatic test: The assay was carried out in a 96 well plate. A mixture comprising the following was produced: 75μl of a 10 mM solution of specific chromogenic substrate coupled to paranitrophenol (PNP); 10 μl of 700 mM citrate buffer/200 mM sodium phosphate, pH 4.5; 55 μl of a 0.5 M solution of O-octanoyl-6′-maltose [α-D-glucopyannosyl-1-4-D-glucopyranose]; 40 μl of a solution of soluble glycosidases from the stratum corneum. This solution was obtained simply by scratching the forearm into a 70 mM sodium citrate buffer, pH 4.5 containing 1% of Tween 20 and eliminating cell debris by sequential filtering through a membrane with a pore size of 0.45 and of 0.22 μm. The measurements were carried out by quantifying the yellow coloration after incubation at 37° C. for a period in the range 1h30 and 48 hours.

[2] = system: other glycosidases of the stratum corneum; test: enzymatic test of stratum corneum glycosidases with PNP chromogenic substrate: other glycosidases; type: biochemical; settings: FIG. 1; activity relative to value without compound; pH 4.5, 37° C.
Experimental: as §1

[3] = system: thermostable recombinant glycosidases (Clonezyme); test: effect on thermostable recombinant glycosidases sold by Clonezyme; type: biochemical; settings: FIG. 3; increasing concentrations; 7 glycosidases tested
Experimental: O-octanoyl-6′-maltose was also tested for its effect on glycosidases sold by Clonezyme.

[4] = system: GLY-01; design: key: −: no activity; ε, +, ++: specific activity; ε, +, ++: specific activity; ε, +, ++: specific activity; settings: glycosidase sold by Clonezyme; cited from earlier work
[5] = system: GLY-02; design: key: −: no activity; ε, +, ++: specific activity; ε, +, ++: specific activity; ε, +, ++: specific activity; settings: glycosidase sold by Clonezyme; cited from earlier work
[6] = system: GLY-03; design: key: −: no activity; ε, +, ++: specific activity; ε, +, ++: specific activity; ε, +, ++: specific activity; settings: glycosidase sold by Clonezyme; cited from earlier work
[7] = system: GLY-04; design: key: −: no activity; ε, +, ++: specific activity; ε, +, ++: specific activity; ε, +, ++: specific activity; settings: glycosidase sold by Clonezyme; cited from earlier work
[8] = system: GLY-05; design: key: −: no activity; ε, +, ++: specific activity; ε, +, ++: specific activity; ε, +, ++: specific activity; settings: glycosidase sold by Clonezyme; cited from earlier work
[9] = system: GLY-06; design: key: −: no activity; ε, +, ++: specific activity; ε, +, ++: specific activity; ε, +, ++: specific activity; settings: glycosidase sold by Clonezyme; cited from earlier work
[10] = system: GLY-07; design: key: −: no activity; ε, +, ++: specific activity; ε, +, ++: specific activity; ε, +, ++: specific activity; settings: glycosidase sold by Clonezyme; cited from earlier work
[11] = system: GLY-08; design: key: −: no activity; ε, +, ++: specific activity; ε, +, ++: specific activity; ε, +, ++: specific activity; settings: glycosidase sold by Clonezyme; cited from earlier work
[12] = system: GLY-09; design: key: −: no activity; ε, +, ++: specific activity; ε, +, ++: specific activity; ε, +, ++: specific activity; settings: glycosidase sold by Clonezyme; cited from earlier work
[13] = system: GLY-10; design: key: −: no activity; ε, +, ++: specific activity; ε, +, ++: specific activity; ε, +, ++: specific activity; settings: glycosidase sold by Clonezyme; cited from earlier work

| SMILES | effect on β-glucosidase activity of the stratum corneum ([1]; FIG. 1, activity relative to value without compound, pH 4.5, 37° C.) | concentration giving maximum stimulation of β-D-glucosidase activity ([1]; increasing product concentrations, about 40 mM (1%)) | effect on the other glycosidases of the stratum corneum [2] | effect on recombinant glycosidases, first group of enzymes [3] | effect on recombinant glycosidases, second group of enzymes [3] | stimulation of recombinant glycosidases, third group of enzymes, of their base activity [3] | stimulation of β-D-glucosidase activity [1] | substrate specificity GLY-01 [4] | substrate specificity GLY-02 [5] | substrate specificity GLY-03 [6] | substrate specificity GLY-04 [7] | substrate specificity GLY-05 [8] | substrate specificity GLY-06 [9] | substrate specificity GLY-07 [10] | substrate specificity GLY-08 [11] | substrate specificity GLY-09 [12] | substrate specificity GLY-10 [13] |
| --- | --- | --- | --- | --- | --- | --- | --- | --- | --- | --- | --- | --- | --- | --- | --- | --- | --- |
| CCCCCCCC(=O)OC[C@H]1O[C@H](O[C@H]2[C@H](O)[C@@H](O)C(O)O[C@@H]2CO)[C@H](O)[C@@H](O)[C@@H]1O (stereo partly drawn) [O-octanoyl-6′-maltose, O-octanoyl-6′-maltose [α-D-glucopyranosyl-1-4-D-glucopyranose]] | only β-glucosidase had kinetics influenced | about 40 mM | either indifferent to the presence of O-octanoyl-6′-maltose or very slightly inhibited | insensitive | inhibited | up to 400% |  |  |  |  |  |  |  |  |  |  |  |
| OC[C@H]1O[C@H](O[C@H]2[C@H](O)[C@@H](O)[C@H](O)O[C@@H]2CO)[C@H](O)[C@@H](O)[C@@H]1O [maltose] |  |  |  |  |  |  | Neither maltose alone nor glucose alone could stimulate β-D-glucosidase activity |  |  |  |  |  |  |  |  |  |  |
| OC[C@H]1O[C@H](O)[C@H](O)[C@@H](O)[C@@H]1O [α-D-glucose] |  |  |  |  |  |  |  | ++ | ++ | ++ | ++ | ++ | ++ | ++ | ++ | ++ | − |
| C[C@@H]1O[C@@H](O)[C@@H](O)[C@H](O)[C@@H]1O [α-L-fucose] |  |  |  |  |  |  |  | − | − | − | − | − | − | − | − | − | − |
| CCCCCCCC(=O)OCC1OC(O)C(O)C(O)C1O [O-octanoyl-6-D-glucose] |  |  |  |  |  |  | a certain stimulation of activity, albeit small |  |  |  |  |  |  |  |  |  |  |
| OC[C@H]1O[C@@H](O)[C@H](O)[C@@H](O)[C@@H]1O [β-D-glucose] |  |  |  |  |  |  |  | − | − | − | − | − | − | − | − | − | − |
| CC(=O)NC1C(OC2C(CO)OC(Oc3ccc([N+](=O)[O-])cc3)C(NC(C)=O)C2O)OC(CO)C(O)C1O [β-D-N-acetylch obloside] |  |  |  |  |  |  |  | − | − | − | − | − | − | − | − | − | − |
| O[C@@H]1[C@@H](O)[C@H](O)OC[C@H]1O [β-D-xylose] |  |  |  |  |  |  |  | ε | + | − | ε | ε | ε | ε | ε | ε | − |
